Data: US10660877B2 (BRISTOL-MYERS SQUIBB COMPANY, priority 2016, dated 2020)
Read-outs that look alike come from different tables or passages of the source.

Assays:
human TLR7 = human TLR7 (Homo sapiens (Human), UniProt Q9NYK1); test: TLR7 inhibition reporter assay (HEK-Blue cells, SEAP reporter, gardiquimod stimulation); type: cell-based
human TLR9 = human TLR9 (Homo sapiens (Human), UniProt Q9NR96); test: TLR9 inhibition reporter assay (HEK-Blue cells, SEAP reporter, ODN2006 stimulation);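 also: compounds tested over 0.05 nM to 50 µM, 22 h incubation, inhibition taken as SEAP signal drop from agonist plus DMSO wells toward a known inhibitor control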
human TLR8 = human TLR8 (Homo sapiens (Human), UniProt Q9NR97); test: TLR8 inhibition reporter assay (HEK-Blue cells, SEAP reporter, R848 stimulation);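 also: compounds tested from 0.05 nM to 50 µM, 22 h at 37 °C, SEAP measured with HEK-Blue Detection, inhibition relative to agonist plus DMSO versus a known inhibitor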
[1] = HEK-Blue cells overexpressing human TLR7, gardiquimod 7.5 μM
[2] = read-out: TLR9 IC50, HEK-Blue cells overexpressing human TLR9, ODN2006 5 nM
[3] = read-out: TLR8 IC50, HEK-Blue cells overexpressing human TLR8, R848 15.9 μM

Sequence of human TLR8 (Q9NR97 27-1041): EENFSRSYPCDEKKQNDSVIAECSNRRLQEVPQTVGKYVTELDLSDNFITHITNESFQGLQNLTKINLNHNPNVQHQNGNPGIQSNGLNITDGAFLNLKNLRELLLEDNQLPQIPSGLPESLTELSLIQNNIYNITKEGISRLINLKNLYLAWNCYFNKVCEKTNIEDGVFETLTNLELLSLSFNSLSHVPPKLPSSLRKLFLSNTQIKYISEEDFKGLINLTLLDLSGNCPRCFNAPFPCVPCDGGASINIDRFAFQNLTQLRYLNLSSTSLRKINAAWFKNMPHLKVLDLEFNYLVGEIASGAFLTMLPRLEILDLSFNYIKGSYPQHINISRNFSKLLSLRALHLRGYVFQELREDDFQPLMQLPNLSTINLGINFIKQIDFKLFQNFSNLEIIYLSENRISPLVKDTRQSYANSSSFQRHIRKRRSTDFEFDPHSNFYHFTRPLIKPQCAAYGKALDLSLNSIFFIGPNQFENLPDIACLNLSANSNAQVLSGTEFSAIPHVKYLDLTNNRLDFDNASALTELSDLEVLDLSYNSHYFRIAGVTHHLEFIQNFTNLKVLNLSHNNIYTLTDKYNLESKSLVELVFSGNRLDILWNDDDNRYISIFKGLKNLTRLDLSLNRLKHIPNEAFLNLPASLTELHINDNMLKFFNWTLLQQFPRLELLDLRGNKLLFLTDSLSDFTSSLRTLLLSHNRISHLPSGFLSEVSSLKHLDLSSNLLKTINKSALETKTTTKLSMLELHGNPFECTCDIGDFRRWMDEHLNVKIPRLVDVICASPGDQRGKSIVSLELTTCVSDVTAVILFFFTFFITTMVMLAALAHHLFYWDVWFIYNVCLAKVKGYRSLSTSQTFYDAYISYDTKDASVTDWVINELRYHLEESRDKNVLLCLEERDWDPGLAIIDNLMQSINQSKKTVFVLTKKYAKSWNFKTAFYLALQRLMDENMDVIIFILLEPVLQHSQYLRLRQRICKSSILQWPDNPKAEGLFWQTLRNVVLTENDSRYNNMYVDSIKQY
Sequence of human TLR7 (Q9NYK1 27-1049): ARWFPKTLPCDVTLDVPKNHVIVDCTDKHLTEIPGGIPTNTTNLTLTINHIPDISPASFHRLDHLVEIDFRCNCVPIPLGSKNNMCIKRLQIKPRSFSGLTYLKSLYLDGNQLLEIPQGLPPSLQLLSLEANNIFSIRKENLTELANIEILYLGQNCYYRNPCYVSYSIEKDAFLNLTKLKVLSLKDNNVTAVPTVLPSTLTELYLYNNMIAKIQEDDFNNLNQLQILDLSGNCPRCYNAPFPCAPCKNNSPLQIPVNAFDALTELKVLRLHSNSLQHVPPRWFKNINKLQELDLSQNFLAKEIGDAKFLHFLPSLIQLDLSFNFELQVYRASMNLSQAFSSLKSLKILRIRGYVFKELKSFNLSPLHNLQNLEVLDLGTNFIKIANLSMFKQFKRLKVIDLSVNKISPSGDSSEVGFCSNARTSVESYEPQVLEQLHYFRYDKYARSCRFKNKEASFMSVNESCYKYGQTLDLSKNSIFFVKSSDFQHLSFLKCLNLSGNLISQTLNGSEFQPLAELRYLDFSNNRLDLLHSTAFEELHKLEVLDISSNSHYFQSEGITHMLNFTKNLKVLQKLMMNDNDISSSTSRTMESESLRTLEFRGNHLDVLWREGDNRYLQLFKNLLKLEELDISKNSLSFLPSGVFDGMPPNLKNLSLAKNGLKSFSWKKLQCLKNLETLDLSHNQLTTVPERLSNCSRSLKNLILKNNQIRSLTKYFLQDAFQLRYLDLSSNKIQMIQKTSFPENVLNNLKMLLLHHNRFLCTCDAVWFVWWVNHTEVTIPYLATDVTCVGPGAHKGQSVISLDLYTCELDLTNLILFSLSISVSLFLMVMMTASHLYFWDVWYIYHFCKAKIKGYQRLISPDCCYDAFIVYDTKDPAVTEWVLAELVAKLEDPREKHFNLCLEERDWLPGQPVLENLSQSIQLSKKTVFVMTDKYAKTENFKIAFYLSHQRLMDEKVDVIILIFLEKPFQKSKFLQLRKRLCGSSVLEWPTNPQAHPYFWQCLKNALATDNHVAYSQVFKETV
Sequence of human TLR9 (Q9NR96 26-1032): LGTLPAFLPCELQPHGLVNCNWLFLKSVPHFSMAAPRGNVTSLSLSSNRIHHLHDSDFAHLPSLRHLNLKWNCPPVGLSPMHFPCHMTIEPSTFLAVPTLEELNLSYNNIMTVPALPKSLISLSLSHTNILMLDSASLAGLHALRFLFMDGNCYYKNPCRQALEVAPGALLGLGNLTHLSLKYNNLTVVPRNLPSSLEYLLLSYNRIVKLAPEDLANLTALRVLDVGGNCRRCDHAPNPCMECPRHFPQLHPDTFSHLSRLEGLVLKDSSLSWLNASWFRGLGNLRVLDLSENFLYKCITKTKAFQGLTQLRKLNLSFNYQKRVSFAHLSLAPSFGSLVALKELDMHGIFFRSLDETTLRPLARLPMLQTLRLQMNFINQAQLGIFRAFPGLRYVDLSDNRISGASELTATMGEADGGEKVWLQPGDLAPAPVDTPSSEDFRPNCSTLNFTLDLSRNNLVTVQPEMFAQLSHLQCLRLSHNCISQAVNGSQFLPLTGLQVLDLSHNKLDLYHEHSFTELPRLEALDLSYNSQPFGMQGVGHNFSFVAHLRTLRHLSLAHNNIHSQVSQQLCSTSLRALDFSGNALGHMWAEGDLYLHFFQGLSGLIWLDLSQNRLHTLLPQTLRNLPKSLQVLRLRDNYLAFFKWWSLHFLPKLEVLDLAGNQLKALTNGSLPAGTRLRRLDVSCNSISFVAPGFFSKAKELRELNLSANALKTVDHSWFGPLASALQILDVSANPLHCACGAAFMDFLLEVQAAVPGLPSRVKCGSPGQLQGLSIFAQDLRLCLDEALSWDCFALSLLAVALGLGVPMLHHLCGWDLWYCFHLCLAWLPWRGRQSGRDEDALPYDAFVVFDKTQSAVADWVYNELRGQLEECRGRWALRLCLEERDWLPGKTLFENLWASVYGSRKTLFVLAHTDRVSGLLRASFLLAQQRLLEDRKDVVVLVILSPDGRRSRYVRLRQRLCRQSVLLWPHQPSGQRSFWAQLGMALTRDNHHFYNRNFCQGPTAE

| IC50 (human TLR7; [1]) | IC50 (human TLR9; [2]) | IC50 (human TLR8; [3]) | IC50 (human TLR9; TLR9 IC50, HEK-Blue cells overexpressing human TLR9, ODN2006 5 nM) | IC50 (human TLR8; TLR8 IC50, HEK-Blue cells overexpressing human TLR8, R848 15.9 μM) | IC50 (human TLR7; HEK-Blue cells, gardiquimod 7.5 μM) | IC50 (human TLR9; read-out: TLR9 IC50, HEK-Blue cells, ODN2006 5 nM) | IC50 (human TLR8; read-out: TLR8 IC50, HEK-Blue cells, R848 15.9 μM) | Compound |
| --- | --- | --- | --- | --- | --- | --- | --- | --- |
| 9.1 nM | 1320 nM | 23.3 nM | – | – | – | – | – | Cc1cc(-c2[nH]c3ccc(C4CCNCC4)cc3c2C(C)(C)C)cc(C)n1 [Example 96, 3-(tert-butyl)-2-(2,6-dimethylpyridin-4-yl)-5-(piperidin-4-yl)-1H-indole] |
| 29.7 nM | 11800 nM | 73.5 nM | – | – | – | – | – | Cc1cc(-c2[nH]c3ccc(C4CCN(C(=O)CC5C(=O)NC(=O)N5C)CC4)cc3c2C(C)C)cc(C)n1 (stereo not drawn) [Example 130, 5-(2-(4-(2-(2,6-dimethylpyridin-4-yl)-3-isopropyl-1H-indol-5-yl)piperidin-1-yl)-2-oxoethyl)-1-methylimidazolidine-2,4-dione] |
| 3 nM | 2240 nM | 3.7 nM | – | – | – | – | – | Cc1nccc(-c2[nH]c3ccc(C4CCN(CC(=O)N(C)C)CC4)cc3c2C(C)C)c1F [Example 648, 2-(4-(2-(3-fluoro-2-methylpyridin-4-yl)-3-isopropyl-1H-indol-5-yl)piperidin-1-yl)-N,N-dimethylacetamide] |
| 3120 nM | 3300 nM | 185 nM | – | – | – | – | – | CNCCN1CCC(c2ccc3[nH]c(-c4cc(OC)ncc4F)c(C)c3c2)CC1 [Example 756, 2-(4-(2-(5-fluoro-2-methoxypyridin-4-yl)-3-methyl-1H-indol-5-yl)piperidin-1-yl)-N-methylethan-1-amine] |
| 9.3 nM | – | – | 36900 nM | 52.4 nM | – | – | – | Cc1cc(-c2[nH]c3ccc(C4CCN(C(=O)C5CC(=O)N(C)C5)CC4)cc3c2C(C)C)cc(C)n1 (single isomer, unassigned) [Example 101, 4-(4-(2-(2,6-dimethylpyridin-4-yl)-3-isopropyl-1H-indol-5-yl)piperidine-1-carbonyl)-1-methylpyrrolidin-2-one] |
| 17.4 nM | 813 nM | 81.8 nM | – | – | – | – | – | CNC(=O)CN1CCC(c2ccc3[nH]c(-c4cc(C)nc(C)c4)c(CC(F)F)c3c2)CC1 [Example 532, 2-(4-(3-(2,2-difluoroethyl)-2-(2,6-dimethylpyridin-4-yl)-1H-indol-5-yl)piperidin-1-yl)-N-methylacetamide] |
| 3110 nM | 19400 nM | 13400 nM | – | – | – | – | – | COc1cc(-c2[nH]c3ccc(C4CCN(CC(F)(F)F)CC4)cc3c2C(C)C)ccn1 [Example 639, 3-isopropyl-2-(2-methoxypyridin-4-yl)-5-(1-(2,2,2-trifluoroethyl)piperidin-4-yl)-1H-indole] |
| 8.6 nM | 27700 nM | 80.8 nM | – | – | – | – | – | Cc1cc(-c2[nH]c3ccc(C4CCN(C(=O)C5CCCO5)CC4)cc3c2C(C)C)cc(C)n1 (stereo not drawn) [Example 103, (4-(2-(2,6-dimethylpyridin-4-yl)-3-isopropyl-1H-indol-5-yl)piperidin-1-yl)(tetrahydrofuran-2-yl)methanone] |
| 144 nM | > 50000 nM | 1150 nM | – | – | – | – | – | CC(C)c1c(-c2cc(C3CC3)ncc2F)[nH]c2ccc(C3CCN(C(=O)C4CC(=O)N(C)C4)CC3)cc12 (stereo not drawn) [Example 517, 4-(4-(2-(2-cyclopropyl-5-fluoropyridin-4-yl)-3-isopropyl-1H-indol-5-yl)piperidine-1-carbonyl)-1-methylpyrrolidin-2-one] |
| 39.6 nM | 69 nM | 34.6 nM | – | – | – | – | – | Cc1cc(-c2[nH]c3ccc(C4CCN(Cc5c[nH]c(C)n5)CC4)cc3c2CC(F)F)cc(C)n1 [Example 538, 3-(2,2-difluoroethyl)-2-(2,6-dimethylpyridin-4-yl)-5-(1-((2-methyl-1H-imidazol-4-yl)methyl)piperidin-4-yl)-1H-indole] |
| – | – | – | – | – | 9.4 nM | 556 nM | 29.6 nM | Cc1cc(-c2[nH]c3cc(F)c(C4CCN(C5CC(C)OC(C)C5)CC4)cc3c2C(C)C)cc(C)n1 (stereo not drawn) [Example 833, 2-(2,6-dimethylpyridin-4-yl)-5-(1-(2,6-dimethyltetrahydro-2H-pyran-4-yl)piperidin-4-yl)-6-fluoro-3-isopropyl-1H-indole] |
| 3.2 nM | 522 nM | 10.8 nM | – | – | – | – | – | Cc1cc(-c2[nH]c3ccc(C4CCN(CC(=O)NCC5CCCO5)CC4)cc3c2C(C)C)cc(C)n1 (stereo not drawn) [Example 266, 2-(4-(2-(2,6-dimethylpyridin-4-yl)-3-isopropyl-1H-indol-5-yl)piperidin-1-yl)-N-((tetrahydrofuran-2-yl)methyl)acetamide] |
| 590 nM | 3540 nM | 195 nM | – | – | – | – | – | CC(C)c1c(-c2ccncc2F)[nH]c2ccc(C3CCNCC3)cc12 [Example 7, 2-(3-fluoropyridin-4-yl)-3-isopropyl-5-(piperidin-4-yl)-1H-indole] |
| 10.8 nM | 1670 nM | 5.2 nM | – | – | – | – | – | Cc1cc(-c2[nH]c3ccc(C4CCN(C(=O)CN(C)C)CC4)cc3c2C(C)C)c(C)cn1 [Example 585, 2-(dimethylamino)-1-(4-(2-(2,5-dimethylpyridin-4-yl)-3-isopropyl-1H-indol-5-yl)piperidin-1-yl)ethan-1-one] |
| 19.7 nM | 9450 nM | 108 nM | – | – | – | – | – | Cc1cc(-c2[nH]c3ccc(C4CCN(C(=O)C5(C#N)CC5)CC4)cc3c2C(C)C)ccn1 [Example 611, 1-(4-(3-isopropyl-2-(2-methylpyridin-4-yl)-1H-indol-5-yl)piperidine-1-carbonyl)cyclopropane-1-carbonitrile] |
| 10.8 nM | 1230 nM | 24.1 nM | – | – | – | – | – | CNC(=O)CN1CCC(c2ccc3[nH]c(-c4cc(C)nc(C5CC5)c4)c(C(C)C)c3c2)CC1 [Example 503, 2-(4-(2-(2-cyclopropyl-6-methylpyridin-4-yl)-3-isopropyl-1H-indol-5-yl)piperidin-1-yl)-N-methylacetamide] |
| 8 nM | 554 nM | 3 nM | – | – | – | – | – | Cc1cc(-c2[nH]c3ccc(C4CCN(C5CCOCC5)CC4)cc3c2C(C)C)ccn1 [Example 710, 3-isopropyl-2-(2-methylpyridin-4-yl)-5-(1-(tetrahydro-2H-pyran-4-yl)piperidin-4-yl)-1H-indole] |
| 49 nM | 37300 nM | 228 nM | – | – | – | – | – | CCC(=O)N1CCC(c2ccc3[nH]c(-c4ccnc(C)c4)c(C(C)C)c3c2)CC1 [Example 603, 1-(4-(3-isopropyl-2-(2-methylpyridin-4-yl)-1H-indol-5-yl)piperidin-1-yl)propan-1-one] |
| 96.3 nM | 671 nM | 36.8 nM | – | – | – | – | – | CCc1c(-c2ccncc2)[nH]c2ccc(C3CCNCC3)cc12 [Example 60, 3-ethyl-5-(piperidin-4-yl)-2-(pyridin-4-yl)-1H-indole] |
| 8.3 nM | 1800 nM | 34.2 nM | – | – | – | – | – | Cc1cc(-c2[nH]c3ccc(C4CCN(C(=O)CN5CCCC(F)C5)CC4)cc3c2C(C)C)cc(C)n1 (stereo not drawn) [Example 363, 1-(4-(2-(2,6-dimethylpyridin-4-yl)-3-isopropyl-1H-indol-5-yl)piperidin-1-yl)-2-(3-fluoropiperidin-1-yl)ethan-1-one] |
| 22.9 nM | 1680 nM | 10.9 nM | – | – | – | – | – | Cc1cc(-c2[nH]c3ccc(C4CCN(Cc5cc(C)on5)CC4)cc3c2C(C)C)cc(C)n1 [Example 443, 3-((4-(2-(2,6-dimethylpyridin-4-yl)-3-isopropyl-1H-indol-5-yl)piperidin-1-yl)methyl)-5-methylisoxazole] |
